Data published in ChEMBL document CHEMBL3232729, “Marsupellins A-F, ent-longipinane-type sesquiterpenoids from the Chinese liverwort Marsupella alpine with acetylcholinesterase inhibitory activity” (J Nat Prod, 2014).

Molecular target: Acetylcholinesterase (Homo sapiens) (UniProt P22303)
Sequence (P22303 whole entry): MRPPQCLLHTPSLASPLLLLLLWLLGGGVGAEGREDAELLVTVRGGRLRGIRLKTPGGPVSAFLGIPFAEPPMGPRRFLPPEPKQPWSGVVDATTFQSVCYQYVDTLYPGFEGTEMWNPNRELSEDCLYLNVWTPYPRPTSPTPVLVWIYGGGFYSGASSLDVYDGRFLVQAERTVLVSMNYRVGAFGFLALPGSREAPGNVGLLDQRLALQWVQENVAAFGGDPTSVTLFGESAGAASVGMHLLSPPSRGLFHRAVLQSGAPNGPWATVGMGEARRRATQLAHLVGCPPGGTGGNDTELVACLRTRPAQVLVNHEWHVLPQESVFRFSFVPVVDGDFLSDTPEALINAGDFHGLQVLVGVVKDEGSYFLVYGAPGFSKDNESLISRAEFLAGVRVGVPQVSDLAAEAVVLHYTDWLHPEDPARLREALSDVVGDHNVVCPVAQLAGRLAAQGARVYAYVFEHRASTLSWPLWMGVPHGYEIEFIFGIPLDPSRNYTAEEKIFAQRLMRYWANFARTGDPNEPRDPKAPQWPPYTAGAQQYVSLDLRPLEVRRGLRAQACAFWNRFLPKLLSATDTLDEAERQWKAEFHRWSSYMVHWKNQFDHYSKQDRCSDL
Description: Inhibition of AChE (unknown origin) assessed as minimum inhibitory concentration by bioautographic TLC assay

| Structure (SMILES) | MIC [µg] |
| --- | --- |
| CC(=O)OC[C@]12CCCC(C)(C)[C@@H]3[C@H]1[C@]1(CO1)C(=O)C[C@@H]32 | 4 |
| CC(=O)OC[C@]12CCCC(C)(C)[C@@H]3[C@H]1[C@@]1(CO1)C(=O)C[C@@H]32 | 4 |
| C=C1[C@@H](O)[C@H](O)[C@H]2[C@H]3[C@@H]1C2(C)CCCC3(C)C | 4 |
| C=C1C(=O)C[C@H]2[C@H]3[C@@H]1C2(COC(C)=O)CCCC3(C)C | 4 |
| C[C@@H]1C(=O)C[C@H]2[C@H]3[C@@H]1C2(C)CCCC3(C)C | 4 |
| C=C1[C@H](O)C[C@H]2[C@H]3[C@@H]1C2(COC(C)=O)CCCC3(C)C | 4 |
| C[C@H]1[C@@H]2[C@@H]3[C@@H]4C[C@@]1(O)OC[C@@]24CCCC3(C)C | 0.8 |
| C=C1OC(=O)C[C@H]2[C@H]3[C@@H]1[C@]2(COC(C)=O)CCCC3(C)C | 4 |
| C[C@H]1[C@@H]2[C@@H]3[C@@H]4C[C@@]1(O)OC(=O)[C@@]24CCCC3(C)C | 0.6 |
